Assay results reported in US10189809B2, “SGC stimulators” (Ironwood Pharmaceuticals, Inc., priority 2010, dated 2019).

Assays:
[1] = biological target: T1, soluble guanylate cyclase (sGC) (Homo sapiens (Human), UniProt Q02108+Q02153); experiment: sGC-HEK-cGMP assay run in the absence of SNP (HEK WC assay); format: cell-based; settings: no SNP, increase in the sGC receptor activity; for HEK WC Assay (fold increase at 10 μM): compound at 10 μM; for HEK WC Assay (fold increase at 30 μM): compound at 30 μM
T1 sequence (Q02153 whole entry): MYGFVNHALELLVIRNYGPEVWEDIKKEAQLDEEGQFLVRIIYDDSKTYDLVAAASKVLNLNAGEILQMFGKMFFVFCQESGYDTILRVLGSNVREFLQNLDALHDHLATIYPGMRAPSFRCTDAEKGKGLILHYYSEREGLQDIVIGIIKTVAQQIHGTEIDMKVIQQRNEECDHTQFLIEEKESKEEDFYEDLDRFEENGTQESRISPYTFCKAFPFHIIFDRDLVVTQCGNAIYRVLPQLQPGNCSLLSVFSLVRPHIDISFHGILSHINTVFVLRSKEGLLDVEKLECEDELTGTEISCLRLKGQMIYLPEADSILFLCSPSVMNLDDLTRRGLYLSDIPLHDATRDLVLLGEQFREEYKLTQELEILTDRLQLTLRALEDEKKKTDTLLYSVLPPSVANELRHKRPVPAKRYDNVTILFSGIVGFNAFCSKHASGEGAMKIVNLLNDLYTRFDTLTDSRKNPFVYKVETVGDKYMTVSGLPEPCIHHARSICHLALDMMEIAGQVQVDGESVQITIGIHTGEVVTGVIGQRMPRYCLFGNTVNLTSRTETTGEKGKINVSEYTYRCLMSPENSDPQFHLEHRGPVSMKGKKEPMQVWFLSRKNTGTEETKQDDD
T1 sequence (Q02108 whole entry): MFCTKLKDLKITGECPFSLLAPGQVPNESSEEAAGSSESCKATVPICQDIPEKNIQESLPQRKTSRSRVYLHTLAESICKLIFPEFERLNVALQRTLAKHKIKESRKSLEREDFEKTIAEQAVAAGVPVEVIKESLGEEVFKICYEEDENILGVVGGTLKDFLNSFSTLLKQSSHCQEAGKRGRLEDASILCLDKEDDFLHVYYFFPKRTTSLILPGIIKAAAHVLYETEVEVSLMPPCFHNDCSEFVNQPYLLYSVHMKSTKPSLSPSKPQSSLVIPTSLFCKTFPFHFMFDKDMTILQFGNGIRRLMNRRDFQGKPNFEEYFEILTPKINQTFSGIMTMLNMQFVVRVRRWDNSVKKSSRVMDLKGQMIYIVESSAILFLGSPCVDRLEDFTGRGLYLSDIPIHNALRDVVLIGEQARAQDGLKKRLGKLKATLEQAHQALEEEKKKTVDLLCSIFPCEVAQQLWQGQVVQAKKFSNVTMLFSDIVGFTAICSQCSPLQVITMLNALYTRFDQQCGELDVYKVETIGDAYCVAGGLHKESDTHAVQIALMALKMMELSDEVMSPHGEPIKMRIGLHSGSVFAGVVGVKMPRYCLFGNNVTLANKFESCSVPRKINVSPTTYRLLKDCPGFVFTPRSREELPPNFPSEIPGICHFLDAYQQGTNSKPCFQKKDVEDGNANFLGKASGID
Procedure, shortened: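 HEK293 cells with endogenous sGC, preincubated 15 min at 37° C with 0.5 mM IBMX, then exposed to test compound 10 min at 37° C without SNP. Cells lysed in 0.1 M HCl; cGMP quantified by LC/MS against a standard curve. EC50 from concentration-response curves.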

[2] = biological target: T1, soluble guanylate cyclase (sGC); experiment: sGC-HEK-cGMP assay run with SNP incubation (HEK WC assay); format: cell-based; settings: for Emax at 10 µM: read-out: HEK WC Assay (% Emax at 10 uM/with 10 uM SNP); for Emax at 30 µM: read-out: HEK WC Assay (% Emax at 30 uM/with 10 uM SNP)
Procedure, shortened: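 HEK293 cells with endogenous sGC were pretreated with 0.5 mM IBMX for 15 min at 37 °C, then exposed to test compound plus sodium nitroprusside for 10 min at 37 °C.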

[3] = biological target: T2, Human soluble guanylate cyclase enzyme (hsGC) (Homo sapiens (Human), UniProt Q02108+Q02153); experiment: Purified human sGC enzyme activity assay; format: biochemical; settings: for sGC Enzyme (specific activity at 10 μM) / sGC Enzyme (fold increase at 10 μM without SNP): 10 μM compound; for sGC Enzyme (specific activity at 30 μM) / sGC Enzyme (fold increase at 30 μM without SNP): 30 μM compound
T2 sequence (Q02153 whole entry): as the sequence (Q02153 whole entry) above
T2 sequence (Q02108 whole entry): as the sequence (Q02108 whole entry) above
Procedure, shortened: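 Purified human sGC (5 ng) incubated 30 min at 37° C with compound at 10 or 30 μM final in pH 8.0 Tris with 300 μM GTP, 2 mM MgCl2, 2 mM DTT and 1 mM IBMX, then stopped with cold methanol. cGMP quantified against a standard curve. Specific activity (nmol cGMP/mg sGC/min) expressed as fold-change over DMSO control.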

[4] = biological target: T2, Human soluble guanylate cyclase enzyme (hsGC); experiment: Purified human sGC enzyme synergy assay in the presence of 1 μM sodium nitroprusside (SNP); format: biochemical; settings: with 1 μM SNP; for sGC Enzyme (fold increase at 30 μM with SNP): 30 μM compound
Procedure, shortened: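 Purified human sGC (5 ng) incubated 30 min at 37 °C with compounds at 10 or 30 μM, 1 μM sodium nitroprusside, 300 μM GTP and 1 mM IBMX in Tris pH 8.0 with MgCl2/DTT. cGMP quantified against a standard curve, and specific activity expressed as fold-change over DMSO control.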

Thoracic aortic rings = Thoracic aortic rings assay (Example 19a; IBMX as 100% inhibition); settings: compound at 10 μM; rat thoracic aortic rings contracted with 100 ng/mL phenylephrine; read-out: Percent Relaxation at 10 μM
Protocol: Thoracic aortic rings were dissected from anesthetized (isoflurane) male Sprague-Dawley rats weighing 275-299 g. Tissues were immediately transferred to ice-cold Krebs-Henseleit solution, which had been aerated with 95% O2 and 5% CO2 for 30 minutes. Following removal of connective tissue, aortic sections were cut into 4 rings (˜2 mm each) and suspended on 2 L-shaped hooks, with one hook fixed at the bottom of the tissue bath (Schuler Organ Bath, Harvard Apparatus) and the other connected to a force transducer (F30 Force Transducer, Harvard Apparatus). Baths contained Krebs Henseleit solution (10 mL) heated to 37° C. and aerated with 95% O2 and 5% CO2. Rings were brought to an initial tension of 0.3-0.5 g and gradually raised to a resting tension of 1.0 g over 60 minutes. Rings were rinsed with Krebs Henseleit solution (heated to 37° C. and aerated with 95% O2 and 5% CO2) at 15 minute intervals until a stable baseline was obtained. Rings were considered to be stable after a resting tension of 1.0 g was maintained (for approximately 10 minutes) without need for adjustment. Rings were then contracted with 100 ng/mL phenylephrine by adding 100 uL of a 10 μg/mL phenylephrine stock solution. Tissues achieving a stable contraction were then treated in a cumulative, dose dependent manner with test compounds prepared in dimethylsulfoxide (DMSO). In some cases, tissues were rinsed three times over a 5 minute period with Krebs-Heinseleit's solution (heated to 37° C. and aerated with 95% O2 and 5% CO2), allowed to stabilize at baseline, and then used for characterization of other test articles or DMSO effects. All data were collected using the HSE-ACAD software provided by Harvard Apparatus. […] EC50 values were calculated from concentration-response curves generated with GraphPad Prism Software.

Row | HEK WC Assay (fold increase at 10 μM) [1] | HEK WC Assay (fold increase at 30 μM) [1] | Emax at 10 µM [2] [%] | Emax at 30 µM [2] [%] | sGC Enzyme (specific activity at 10 μM) [3] | sGC Enzyme (fold increase at 10 μM without SNP) [3] | sGC Enzyme (specific activity at 30 μM) [3] | sGC Enzyme (fold increase at 30 μM without SNP) [3] | sGC Enzyme (fold increase at 10 μM with SNP) ([4]; 10 μM compound) | sGC Enzyme (fold increase at 30 μM with SNP) [4] | SMILES | inhibition at 10 µM (Thoracic aortic rings) [%]
1 | B (B = 1 to <2 fold increase) | C (C = 2 to <5 fold increase) | 20 to 40 | 20 to 40 | D (D = 200 to <500) | B (B = 2 to <5 fold increase) | D (D = 200 to <500) | B (B = 2 to <5 fold increase) | B (B = 2 to <5 fold increase) | D (D = equal or >10 fold increase) | COc1cccc(-c2cc(-c3ncccn3)nn2Cc2ccccc2F)n1 [Compound I-6] | 102
2 | B (B = 1 to <2 fold increase) | C (C = 2 to <5 fold increase) | 20 to 40 | 40 to 60 | C (C = 100 to <200) | A (A = no increase to <2 fold increase) | D (D = 200 to <500) | C (C = 5 to <10 fold increase) | – | D (D = equal or >10 fold increase) | Fc1ccccc1Cn1nc(-c2ncccn2)cc1-c1nccs1 [Compound I-33] | 110
